Where two headings read alike, the source gives them in different places.
What was measured:
[1] = test system: Key Grass and Sedge Weeds as well as Grass Crops; test: Post-emergent Test II herbicidal activity (Table 16); type: in vivo; details: post-emergence, 336 h, 14 d; for pest or weed control at 35 g/ha: 35 g ai/ha; for pest or weed control at 70 g/ha: 70 g ai/ha; for pest or weed control at 140 g/ha: 140 g ai/ha
Summary of the method: (§1)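 Herbicidal effect scored as percent visual injury, 14 d after post-emergent application. Spray solutions contained acetone, DMSO, isopropyl alcohol, crop oil concentrate and surfactant, applied at 187 L/ha to young plants (1-2 true leaves).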

[2] = test system: Key Broadleaf Weed and Crop Species; test: Post-emergent Test II herbicidal activity (Table 15); type: in vivo; details: post-emergence, 336 h, 14 d; for pest or weed control at 35 g/ha: 35 g ai/ha; for pest or weed control at 70 g/ha: 70 g ai/ha; for pest or weed control at 140 g/ha: 140 g ai/ha
Summary of the method: as §1

[3] = Cyperus esculentus, yellow nutsedge (Cyperus esculentus), read-out: Visual Growth Reduction (%) 14 Days After Application, CYPES
[4] = Echinochloa crus-galli, barnyardgrass (Echinochloa crus-galli), read-out: Visual Growth Reduction (%) 14 Days After Application, ECHCG
[5] = Oryza sativa, rice (Oryza sativa), read-out: Visual Growth Reduction (%) 14 Days After Application, ORYSA
[6] = Setaria faberi, giant foxtail (Setaria faberi), read-out: Visual Growth Reduction (%) 14 Days After Application, SETFA
[7] = Triticum aestivum, wheat, spring (Triticum aestivum), read-out: Visual Growth Reduction (%) 14 Days After Application, TRZAS
[8] = Zea mays, maize, corn (Zea mays), read-out: Visual Growth Reduction (%) 14 Days After Application, ZEAMX
[9] = Abutilon theophrasti, velvetleaf (Abutilon theophrasti), read-out: Visual Growth Reduction (%) 14 Days After Application, ABUTH
[10] = Amaranthus retroflexus, redroot pigweed (Amaranthus retroflexus), read-out: Visual Growth Reduction (%) 14 Days After Application, AMARE
[11] = Brassica napus, oilseed rape, canola (Brassica napus), read-out: Visual Growth Reduction (%) 14 Days After Application, BRSNN
[12] = Chenopodium album, lambsquarters (Chenopodium album), read-out: Visual Growth Reduction (%) 14 Days After Application, CHEAL
[13] = Euphorbia heterophylla, wild poinsettia (Euphorbia heterophylla), read-out: Visual Growth Reduction (%) 14 Days After Application, EPHHL
[14] = Helianthus annuus, sunflower (Helianthus annuus), read-out: Visual Growth Reduction (%) 14 Days After Application, HELAN

Row | SMILES | pest or weed control at 35 g/ha [1, 3] | pest or weed control at 70 g/ha [1, 3] | pest or weed control at 140 g/ha [1, 3] | pest or weed control at 35 g/ha [1, 4] | pest or weed control at 70 g/ha [1, 4] | pest or weed control at 140 g/ha [1, 4] | pest or weed control at 35 g/ha [1, 5] | pest or weed control at 70 g/ha [1, 5] | pest or weed control at 140 g/ha [1, 5] | pest or weed control at 35 g/ha [1, 6] | pest or weed control at 70 g/ha [1, 6] | pest or weed control at 140 g/ha [1, 6] | pest or weed control at 35 g/ha [1, 7] | pest or weed control at 70 g/ha [1, 7] | pest or weed control at 140 g/ha [1, 7] | pest or weed control at 35 g/ha [1, 8] | pest or weed control at 70 g/ha [1, 8] | pest or weed control at 140 g/ha [1, 8] | pest or weed control at 35 g/ha [2, 9] | pest or weed control at 70 g/ha [2, 9] | further results
1 | COC(=O)c1nc(-c2ccc(Cl)c3cc[nH]c23)c(F)c(N)c1Cl [Compound 1.46] | 0 to 29% | 0 to 29% | 0 to 29% | 0 to 29% | 0 to 29% | 0 to 29% | 0 to 29% | 0 to 29% | 0 to 29% | 0 to 29% | 0 to 29% | 0 to 29% | 0 to 29% | 0 to 29% | 0 to 29% | 0 to 29% | 0 to 29% | 0 to 29% | 0 to 29% | 0 to 29% | pest or weed control at 140 g/ha [2, 9]: 0 to 29%; pest or weed control at 35 g/ha [2, 10]: 0 to 29%; pest or weed control at 70 g/ha [2, 10]: 0 to 29%; pest or weed control at 140 g/ha [2, 10]: 60 to 74%; pest or weed control at 35 g/ha [2, 11]: 0 to 29%; pest or weed control at 70 g/ha [2, 11]: 0 to 29%; pest or weed control at 140 g/ha [2, 11]: 0 to 29%; pest or weed control at 35 g/ha [2, 12]: 75 to 84%; pest or weed control at 70 g/ha [2, 12]: 85 to 94%; pest or weed control at 140 g/ha [2, 12]: 95 to 100%; pest or weed control at 35 g/ha [2, 13]: 0 to 29%; pest or weed control at 70 g/ha [2, 13]: 0 to 29%; pest or weed control at 140 g/ha [2, 13]: 0 to 29%; pest or weed control at 35 g/ha [2, 14]: 0 to 29%; pest or weed control at 70 g/ha [2, 14]: 30 to 44%; pest or weed control at 140 g/ha [2, 14]: 45 to 59%
2 | COC(=O)c1nc(-c2ccc3occc3c2)nc(N)c1OC [Compound 2.06] | 0 to 29% | 0 to 29% | 0 to 29% | 0 to 29% | 45 to 59% | 95 to 100% | 0 to 29% | 0 to 29% | 0 to 29% | 0 to 29% | 0 to 29% | 0 to 29% | 0 to 29% | 0 to 29% | 0 to 29% | 0 to 29% | 0 to 29% | 0 to 29% | 0 to 29% | 0 to 29% | pest or weed control at 140 g/ha [2, 9]: 75 to 84%; pest or weed control at 35 g/ha [2, 10]: 75 to 84%; pest or weed control at 70 g/ha [2, 10]: 95 to 100%; pest or weed control at 140 g/ha [2, 10]: 95 to 100%; pest or weed control at 35 g/ha [2, 11]: 30 to 44%; pest or weed control at 70 g/ha [2, 11]: 60 to 74%; pest or weed control at 140 g/ha [2, 11]: 85 to 94%; pest or weed control at 35 g/ha [2, 12]: 60 to 74%; pest or weed control at 70 g/ha [2, 12]: 75 to 84%; pest or weed control at 140 g/ha [2, 12]: 85 to 94%; pest or weed control at 35 g/ha [2, 13]: 30 to 44%; pest or weed control at 70 g/ha [2, 13]: 75 to 84%; pest or weed control at 140 g/ha [2, 13]: 95 to 100%; pest or weed control at 35 g/ha [2, 14]: 60 to 74%; pest or weed control at 70 g/ha [2, 14]: 75 to 84%; pest or weed control at 140 g/ha [2, 14]: 85 to 94%

— US20170050957A1, “4-AMINO-6-(HETEROCYCLIC)PICOLINATES AND 6-AMINO-2-(HETEROCYCLIC)PYRIMIDINE-4-CARBOXYLATES AND THEIR USE AS HERBICIDES” (Dow AgroSciences LLC, priority 2013, published 2017)
